Columns and labels:
Details in all cases: exposure time: 72 h
E13 [1] = patient-derived glioblastoma stem cells of classical subtype; assay: surviving fraction (nuclei count normalised to DMSO); higher = more cells surviving (less toxic)
E21 [2] = patient-derived glioblastoma stem cells of mesenchymal subtype; assay: as above
E28 [3] = patient-derived glioblastoma stem cells of classical subtype; assay: as above
E31 [4] = patient-derived glioblastoma stem cells of proneural subtype; assay: as above
E34 [5] = patient-derived glioblastoma stem cells of proneural subtype; assay: as above
E57 [6] = patient-derived glioblastoma stem cells of mesenchymal subtype; assay: as above
FT3469 [7] = normal neural stem cell line; assay: as above
E13 [8] = assay: phenotypic distance (Euclidean, principal components) from DMSO controls (arbitrary units); higher = stronger morphological change
E21 [9] = assay: as above
E28 [10] = assay: as above
E31 [11] = assay: as above
E34 [12] = assay: as above
E57 [13] = assay: as above
FT3469 [14] = assay: as above
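Throughout, for phenotypic distance (Euclidean, principal components) from DMSO controls: cell Painting imaging in 384-well plates, CellProfiler features reduced to at least 20 principal components, Euclidean distance versus same-plate DMSO vehicle wells (0.1% v/v), median over six images per well.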
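Throughout, for surviving fraction (nuclei count normalised to DMSO): nuclei counted by high-content imaging of Hoechst-stained cells in laminin-coated 384-well plates, relative to 0.1% DMSO vehicle wells, with staurosporine as cell-death control.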

Clc1ccc(C(Cn2ccnc2)OCc2ccsc2Cl)c(Cl)c1 (stereo unspecified) [Tioconazole]
Details | phenotypic distance | surviving fraction
E13 [1], 4.1 nM | – | 0.996
E13 [1], 12.3 nM | – | 0.959
E13 [1], 37 nM | – | 1.02
E13 [1], 111.1 nM | – | 0.98
E13 [1], 333.3 nM | – | 0.992
E13 [1], 1000 nM | – | 1.01
E13 [1], 3000 nM | – | 0.857
E13 [8], 4.1 nM | 0.434 | –
E13 [8], 12.3 nM | 0.591 | –
E13 [8], 37 nM | 0.952 | –
E13 [8], 111.1 nM | 0.719 | –
E13 [8], 333.3 nM | 0.807 | –
E13 [8], 1000 nM | 0.71 | –
E13 [8], 3000 nM | 0.892 | –
E21 [2], 4.1 nM | – | 1.05
E21 [2], 12.3 nM | – | 1.01
E21 [2], 37 nM | – | 0.998
E21 [2], 111.1 nM | – | 1.03
E21 [2], 333.3 nM | – | 1
E21 [2], 1000 nM | – | 0.876
E21 [2], 3000 nM | – | 0.887
E21 [9], 4.1 nM | 0.639 | –
E21 [9], 12.3 nM | 0.48 | –
E21 [9], 37 nM | 0.312 | –
E21 [9], 111.1 nM | 0.6 | –
E21 [9], 333.3 nM | 0.27 | –
E21 [9], 1000 nM | 0.663 | –
E21 [9], 3000 nM | 1.33 | –
E28 [3], 4.1 nM | – | 1.06
E28 [3], 12.3 nM | – | 1.11
E28 [3], 37 nM | – | 1.05
E28 [3], 111.1 nM | – | 1.13
E28 [3], 333.3 nM | – | 1.03
E28 [3], 1000 nM | – | 1.02
E28 [3], 3000 nM | – | 0.843
E28 [10], 4.1 nM | 0.718 | –
E28 [10], 12.3 nM | 0.644 | –
E28 [10], 37 nM | 0.417 | –
E28 [10], 111.1 nM | 0.495 | –
E28 [10], 333.3 nM | 0.688 | –
E28 [10], 1000 nM | 0.954 | –
E28 [10], 3000 nM | 0.695 | –
E31 [4], 4.1 nM | – | 0.857
E31 [4], 12.3 nM | – | 0.993
E31 [4], 37 nM | – | 1.08
E31 [4], 111.1 nM | – | 1.11
E31 [4], 333.3 nM | – | 0.972
E31 [4], 1000 nM | – | 1.02
E31 [4], 3000 nM | – | 0.969
E31 [11], 4.1 nM | 0.731 | –
E31 [11], 12.3 nM | 0.483 | –
E31 [11], 37 nM | 0.639 | –
E31 [11], 111.1 nM | 0.611 | –
E31 [11], 333.3 nM | 0.715 | –
E31 [11], 1000 nM | 0.918 | –
E31 [11], 3000 nM | 1.46 | –
E34 [5], 4.1 nM | – | 1.14
E34 [5], 12.3 nM | – | 0.871
E34 [5], 37 nM | – | 0.929
E34 [5], 111.1 nM | – | 0.959
E34 [5], 333.3 nM | – | 0.947
E34 [5], 1000 nM | – | 0.894
E34 [5], 3000 nM | – | 0.776
E34 [12], 4.1 nM | 0.558 | –
E34 [12], 12.3 nM | 0.535 | –
E34 [12], 37 nM | 0.702 | –
E34 [12], 111.1 nM | 0.614 | –
E34 [12], 333.3 nM | 0.634 | –
E34 [12], 1000 nM | 0.943 | –
E34 [12], 3000 nM | 1.08 | –
E57 [6], 4.1 nM | – | 0.962
E57 [6], 12.3 nM | – | 0.998
E57 [6], 37 nM | – | 0.997
E57 [6], 111.1 nM | – | 1.04
E57 [6], 333.3 nM | – | 0.973
E57 [6], 1000 nM | – | 0.922
E57 [6], 3000 nM | – | 0.988
E57 [13], 4.1 nM | 0.709 | –
E57 [13], 12.3 nM | 0.457 | –
E57 [13], 37 nM | 0.46 | –
E57 [13], 111.1 nM | 0.302 | –
E57 [13], 333.3 nM | 0.722 | –
E57 [13], 1000 nM | 0.606 | –
E57 [13], 3000 nM | 1.69 | –
FT3469 [7], 4.1 nM | – | 0.871
FT3469 [7], 12.3 nM | – | 1.12
FT3469 [7], 37 nM | – | 0.948
FT3469 [7], 111.1 nM | – | 1.08
FT3469 [7], 333.3 nM | – | 1.01
FT3469 [7], 1000 nM | – | 0.829
FT3469 [7], 3000 nM | – | 0.787
FT3469 [14], 4.1 nM | 1.14 | –
FT3469 [14], 12.3 nM | 1.57 | –
FT3469 [14], 37 nM | 0.375 | –
FT3469 [14], 111.1 nM | 0.556 | –
FT3469 [14], 333.3 nM | 0.563 | –
FT3469 [14], 1000 nM | 0.69 | –
FT3469 [14], 3000 nM | 1.37 | –

COc1cc(N)c(Cl)cc1C(=O)NC1CCN(CCCOc2ccc(F)cc2)CC1OC (stereo unspecified) [Cisapride]
Details | phenotypic distance | surviving fraction
E13 [1], 4.1 nM | – | 1.06
E13 [1], 12.3 nM | – | 0.908
E13 [1], 37 nM | – | 0.927
E13 [1], 111.1 nM | – | 1
E13 [1], 333.3 nM | – | 0.996
E13 [1], 1000 nM | – | 0.958
E13 [1], 3000 nM | – | 0.907
E13 [8], 4.1 nM | 0.873 | –
E13 [8], 12.3 nM | 0.288 | –
E13 [8], 37 nM | 0.382 | –
E13 [8], 111.1 nM | 0.383 | –
E13 [8], 333.3 nM | 0.399 | –
E13 [8], 1000 nM | 0.304 | –
E13 [8], 3000 nM | 0.549 | –
E21 [2], 4.1 nM | – | 1.04
E21 [2], 12.3 nM | – | 1.03
E21 [2], 37 nM | – | 0.956
E21 [2], 111.1 nM | – | 1.08
E21 [2], 333.3 nM | – | 0.888
E21 [2], 1000 nM | – | 0.863
E21 [2], 3000 nM | – | 0.846
E21 [9], 4.1 nM | 0.524 | –
E21 [9], 12.3 nM | 0.638 | –
E21 [9], 37 nM | 0.752 | –
E21 [9], 111.1 nM | 0.754 | –
E21 [9], 333.3 nM | 0.818 | –
E21 [9], 1000 nM | 0.872 | –
E21 [9], 3000 nM | 1.14 | –
E28 [3], 4.1 nM | – | 1.05
E28 [3], 12.3 nM | – | 1.04
E28 [3], 37 nM | – | 1.14
E28 [3], 111.1 nM | – | 0.921
E28 [3], 333.3 nM | – | 1.09
E28 [3], 1000 nM | – | 0.963
E28 [3], 3000 nM | – | 0.844
E28 [10], 4.1 nM | 0.867 | –
E28 [10], 12.3 nM | 0.592 | –
E28 [10], 37 nM | 0.923 | –
E28 [10], 111.1 nM | 0.547 | –
E28 [10], 333.3 nM | 1.1 | –
E28 [10], 1000 nM | 0.901 | –
E28 [10], 3000 nM | 1.01 | –
E31 [4], 4.1 nM | – | 1.04
E31 [4], 12.3 nM | – | 1.01
E31 [4], 37 nM | – | 0.895
E31 [4], 111.1 nM | – | 1
E31 [4], 333.3 nM | – | 1.01
E31 [4], 1000 nM | – | 0.972
E31 [4], 3000 nM | – | 0.67
E31 [11], 4.1 nM | 0.443 | –
E31 [11], 12.3 nM | 0.553 | –
E31 [11], 37 nM | 0.533 | –
E31 [11], 111.1 nM | 0.657 | –
E31 [11], 333.3 nM | 0.557 | –
E31 [11], 1000 nM | 0.668 | –
E31 [11], 3000 nM | 0.804 | –
E34 [5], 4.1 nM | – | 1.06
E34 [5], 12.3 nM | – | 1.13
E34 [5], 37 nM | – | 0.945
E34 [5], 111.1 nM | – | 0.906
E34 [5], 333.3 nM | – | 1.02
E34 [5], 1000 nM | – | 0.971
E34 [5], 3000 nM | – | 1.06
E34 [12], 4.1 nM | 0.74 | –
E34 [12], 12.3 nM | 0.611 | –
E34 [12], 37 nM | 0.666 | –
E34 [12], 111.1 nM | 0.904 | –
E34 [12], 333.3 nM | 0.986 | –
E34 [12], 1000 nM | 0.415 | –
E34 [12], 3000 nM | 0.914 | –
E57 [6], 4.1 nM | – | 0.957
E57 [6], 12.3 nM | – | 0.903
E57 [6], 37 nM | – | 1.05
E57 [6], 111.1 nM | – | 1.07
E57 [6], 333.3 nM | – | 0.967
E57 [6], 1000 nM | – | 1.04
E57 [6], 3000 nM | – | 0.918
E57 [13], 4.1 nM | 0.385 | –
E57 [13], 12.3 nM | 0.606 | –
E57 [13], 37 nM | 0.667 | –
E57 [13], 111.1 nM | 0.47 | –
E57 [13], 333.3 nM | 0.668 | –
E57 [13], 1000 nM | 0.946 | –
E57 [13], 3000 nM | 0.645 | –
FT3469 [7], 4.1 nM | – | 0.931
FT3469 [7], 12.3 nM | – | 1.1
FT3469 [7], 37 nM | – | 0.992
FT3469 [7], 111.1 nM | – | 1.06
FT3469 [7], 333.3 nM | – | 0.891
FT3469 [7], 1000 nM | – | 1.2
FT3469 [7], 3000 nM | – | 0.907
FT3469 [14], 4.1 nM | 1.16 | –
FT3469 [14], 12.3 nM | 0.775 | –
FT3469 [14], 37 nM | 1.12 | –
FT3469 [14], 111.1 nM | 2.83 | –
FT3469 [14], 333.3 nM | 0.576 | –
FT3469 [14], 1000 nM | 1.05 | –
FT3469 [14], 3000 nM | 0.797 | –
